From PubChem BioAssay (NCI)
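Growth conditions: 96-well plates. Treatment: test compound, 48 hours, 5 concentrations. Analysis: linear interpolation between bracketing concentrations; unreached endpoints set to highest concentration. GI50 = concentration required for 50% inhibition of growth. Definition used: TGI = concentration required for complete inhibition of growth.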

Legend:
Test in all cases: NCI anticancer screen, dose series, 48 h
786-0 renal = test system: 786-0 renal
A498 renal = test system: A498 renal
A549 NSCLC = test system: A549 NSCLC
ACHN renal = test system: ACHN renal
BT-549 breast = test system: BT-549 breast
CAKI-1 renal = test system: CAKI-1 renal
CCRF-CEM leukemia = test system: CCRF-CEM leukemia
COLO 205 colon = test system: COLO 205 colon
DU-145 prostate = test system: DU-145 prostate
EKVX NSCLC = test system: EKVX NSCLC
HCC-2998 colon = test system: HCC-2998 colon
HCT-116 colon = test system: HCT-116 colon
HCT-15 colon = test system: HCT-15 colon
HL-60(TB) leukemia = test system: HL-60(TB) leukemia
HOP-62 NSCLC = test system: HOP-62 NSCLC
HOP-92 NSCLC = test system: HOP-92 NSCLC
HS 578T breast = test system: HS 578T breast
HT29 colon = test system: HT29 colon
IGROV1 ovarian = test system: IGROV1 ovarian
K-562 leukemia = test system: K-562 leukemia
KM12 colon = test system: KM12 colon
LOX IMVI melanoma = test system: LOX IMVI melanoma
M14 melanoma = test system: M14 melanoma
MCF7 breast = test system: MCF7 breast
MDA-MB-231 breast = test system: MDA-MB-231 breast
MDA-MB-435 = test system: MDA-MB-435
MOLT-4 leukemia = test system: MOLT-4 leukemia
NCI-H226 lung = test system: NCI-H226 lung
NCI-H460 lung = test system: NCI-H460 lung
NCI-H522 lung = test system: NCI-H522 lung
NCI/ADR-RES ovarian = test system: NCI/ADR-RES ovarian
OVCAR-3 ovarian = test system: OVCAR-3 ovarian
OVCAR-4 ovarian = test system: OVCAR-4 ovarian
OVCAR-5 ovarian = test system: OVCAR-5 ovarian
OVCAR-8 ovarian = test system: OVCAR-8 ovarian
PC-3 prostate = test system: PC-3 prostate
RPMI-8226 leukemia = test system: RPMI-8226 leukemia
RXF 393 renal = test system: RXF 393 renal
SF-268 CNS = test system: SF-268 CNS
SF-295 CNS = test system: SF-295 CNS
SF-539 CNS = test system: SF-539 CNS
SK-MEL-2 melanoma = test system: SK-MEL-2 melanoma
SK-MEL-28 melanoma = test system: SK-MEL-28 melanoma
SK-MEL-5 melanoma = test system: SK-MEL-5 melanoma
SK-OV-3 ovarian = test system: SK-OV-3 ovarian
SN12C renal = test system: SN12C renal
SNB-19 CNS = test system: SNB-19 CNS
SNB-75 CNS = test system: SNB-75 CNS
SW-620 colon = test system: SW-620 colon
T-47D breast = test system: T-47D breast
TK-10 renal = test system: TK-10 renal
U251 CNS = test system: U251 CNS
UACC-257 melanoma = test system: UACC-257 melanoma
UACC-62 melanoma = test system: UACC-62 melanoma
UO-31 renal = test system: UO-31 renal

COc1ccc(C2SCC(=O)N2NC(=O)Nc2c(C)nc3ccccn23)cc1 (stereo not given)
GI50 (786-0 renal): 21.8 µM
TGI (786-0 renal): 61.6 µM
GI50 (A498 renal): 27.8 µM
TGI (A498 renal): 60.3 µM
GI50 (A549 NSCLC): > 100 µM
TGI (A549 NSCLC): > 100 µM
GI50 (ACHN renal): 21.9 µM
TGI (ACHN renal): 47.3 µM
GI50 (BT-549 breast): 24.2 µM
TGI (BT-549 breast): 65 µM
GI50 (CAKI-1 renal): > 100 µM
TGI (CAKI-1 renal): > 100 µM
GI50 (CCRF-CEM leukemia): > 100 µM
TGI (CCRF-CEM leukemia): > 100 µM
GI50 (COLO 205 colon): > 100 µM
TGI (COLO 205 colon): > 100 µM
GI50 (DU-145 prostate): 44.9 µM
TGI (DU-145 prostate): > 100 µM
GI50 (EKVX NSCLC): 63 µM
TGI (EKVX NSCLC): > 100 µM
GI50 (HCC-2998 colon): > 100 µM
TGI (HCC-2998 colon): > 100 µM
GI50 (HCT-116 colon): 17.1 µM
TGI (HCT-116 colon): 42.8 µM
GI50 (HCT-15 colon): > 100 µM
TGI (HCT-15 colon): > 100 µM
GI50 (HL-60(TB) leukemia): > 100 µM
TGI (HL-60(TB) leukemia): > 100 µM
GI50 (HOP-62 NSCLC): 16.4 µM
TGI (HOP-62 NSCLC): 31.1 µM
GI50 (HOP-92 NSCLC): 16.6 µM
TGI (HOP-92 NSCLC): 37.5 µM
GI50 (HS 578T breast): 41.3 µM
TGI (HS 578T breast): > 100 µM
GI50 (HT29 colon): > 100 µM
TGI (HT29 colon): > 100 µM
GI50 (IGROV1 ovarian): 38.6 µM
TGI (IGROV1 ovarian): > 100 µM
GI50 (K-562 leukemia): > 100 µM
TGI (K-562 leukemia): > 100 µM
GI50 (KM12 colon): > 100 µM
TGI (KM12 colon): > 100 µM
GI50 (LOX IMVI melanoma): 27.1 µM
TGI (LOX IMVI melanoma): > 100 µM
GI50 (M14 melanoma): > 100 µM
TGI (M14 melanoma): > 100 µM
GI50 (MCF7 breast): 75.7 µM
TGI (MCF7 breast): > 100 µM
GI50 (MDA-MB-231 breast): 15.8 µM
TGI (MDA-MB-231 breast): 34.7 µM
GI50 (MDA-MB-435): > 100 µM
TGI (MDA-MB-435): > 100 µM
GI50 (MOLT-4 leukemia): > 100 µM
TGI (MOLT-4 leukemia): > 100 µM
GI50 (NCI-H226 lung): 42.8 µM
TGI (NCI-H226 lung): > 100 µM
GI50 (NCI-H460 lung): 90.5 µM
TGI (NCI-H460 lung): > 100 µM
GI50 (NCI-H522 lung): 32.8 µM
TGI (NCI-H522 lung): 95.4 µM
GI50 (NCI/ADR-RES ovarian): 40.2 µM
TGI (NCI/ADR-RES ovarian): > 100 µM
GI50 (OVCAR-3 ovarian): > 100 µM
TGI (OVCAR-3 ovarian): > 100 µM
GI50 (OVCAR-4 ovarian): > 100 µM
TGI (OVCAR-4 ovarian): > 100 µM
GI50 (OVCAR-5 ovarian): 28.9 µM
TGI (OVCAR-5 ovarian): > 100 µM
GI50 (OVCAR-8 ovarian): 40.2 µM
TGI (OVCAR-8 ovarian): > 100 µM
GI50 (PC-3 prostate): 77.2 µM
TGI (PC-3 prostate): > 100 µM
GI50 (RPMI-8226 leukemia): > 100 µM
TGI (RPMI-8226 leukemia): > 100 µM
GI50 (RXF 393 renal): 26.4 µM
TGI (RXF 393 renal): 69.3 µM
GI50 (SF-268 CNS): 39.7 µM
TGI (SF-268 CNS): > 100 µM
GI50 (SF-295 CNS): 24.5 µM
TGI (SF-295 CNS): 57.3 µM
GI50 (SF-539 CNS): 34.1 µM
TGI (SF-539 CNS): > 100 µM
GI50 (SK-MEL-2 melanoma): 41.8 µM
TGI (SK-MEL-2 melanoma): > 100 µM
GI50 (SK-MEL-28 melanoma): > 100 µM
TGI (SK-MEL-28 melanoma): > 100 µM
GI50 (SK-MEL-5 melanoma): > 100 µM
TGI (SK-MEL-5 melanoma): > 100 µM
GI50 (SK-OV-3 ovarian): 24.5 µM
TGI (SK-OV-3 ovarian): 47.6 µM
GI50 (SN12C renal): 54.4 µM
TGI (SN12C renal): > 100 µM
GI50 (SNB-19 CNS): 21.7 µM
TGI (SNB-19 CNS): 47.3 µM
GI50 (SNB-75 CNS): 4.76 µM
TGI (SNB-75 CNS): 19.9 µM
GI50 (SW-620 colon): > 100 µM
TGI (SW-620 colon): > 100 µM
GI50 (T-47D breast): 26.4 µM
TGI (T-47D breast): 74.9 µM
GI50 (TK-10 renal): 22.6 µM
TGI (TK-10 renal): 49 µM
GI50 (U251 CNS): 13.8 µM
TGI (U251 CNS): 27.9 µM
GI50 (UACC-257 melanoma): > 100 µM
TGI (UACC-257 melanoma): > 100 µM
GI50 (UACC-62 melanoma): 39.6 µM
TGI (UACC-62 melanoma): > 100 µM
GI50 (UO-31 renal): 32.7 µM
TGI (UO-31 renal): > 100 µM
